This is an account of results in patent publication US11497752B2, “Compounds and uses thereof” (Foghorn Therapeutics Inc., priority 2018, dated 2022).

A value given as a limit tells only on which side of the number the result lay.

The target of one experiment is BRM (Homo sapiens, UniProt P51531). Kind of experiment: ATPase catalytic activity of BRM (ADP-Glo in vitro biochemical assay). The conditions noted are these: for BRM Max % Inhibition: Table 6.
The target in another experiment is BRG-1 (Homo sapiens, UniProt P51532). The experiment is described as follows: ATPase catalytic activity of BRG-1 (ADP-Glo in vitro biochemical assay). The conditions noted are these: for BRG1 Max % Inhibition: Table 6.
Sequence of BRG-1 (P51532 whole entry): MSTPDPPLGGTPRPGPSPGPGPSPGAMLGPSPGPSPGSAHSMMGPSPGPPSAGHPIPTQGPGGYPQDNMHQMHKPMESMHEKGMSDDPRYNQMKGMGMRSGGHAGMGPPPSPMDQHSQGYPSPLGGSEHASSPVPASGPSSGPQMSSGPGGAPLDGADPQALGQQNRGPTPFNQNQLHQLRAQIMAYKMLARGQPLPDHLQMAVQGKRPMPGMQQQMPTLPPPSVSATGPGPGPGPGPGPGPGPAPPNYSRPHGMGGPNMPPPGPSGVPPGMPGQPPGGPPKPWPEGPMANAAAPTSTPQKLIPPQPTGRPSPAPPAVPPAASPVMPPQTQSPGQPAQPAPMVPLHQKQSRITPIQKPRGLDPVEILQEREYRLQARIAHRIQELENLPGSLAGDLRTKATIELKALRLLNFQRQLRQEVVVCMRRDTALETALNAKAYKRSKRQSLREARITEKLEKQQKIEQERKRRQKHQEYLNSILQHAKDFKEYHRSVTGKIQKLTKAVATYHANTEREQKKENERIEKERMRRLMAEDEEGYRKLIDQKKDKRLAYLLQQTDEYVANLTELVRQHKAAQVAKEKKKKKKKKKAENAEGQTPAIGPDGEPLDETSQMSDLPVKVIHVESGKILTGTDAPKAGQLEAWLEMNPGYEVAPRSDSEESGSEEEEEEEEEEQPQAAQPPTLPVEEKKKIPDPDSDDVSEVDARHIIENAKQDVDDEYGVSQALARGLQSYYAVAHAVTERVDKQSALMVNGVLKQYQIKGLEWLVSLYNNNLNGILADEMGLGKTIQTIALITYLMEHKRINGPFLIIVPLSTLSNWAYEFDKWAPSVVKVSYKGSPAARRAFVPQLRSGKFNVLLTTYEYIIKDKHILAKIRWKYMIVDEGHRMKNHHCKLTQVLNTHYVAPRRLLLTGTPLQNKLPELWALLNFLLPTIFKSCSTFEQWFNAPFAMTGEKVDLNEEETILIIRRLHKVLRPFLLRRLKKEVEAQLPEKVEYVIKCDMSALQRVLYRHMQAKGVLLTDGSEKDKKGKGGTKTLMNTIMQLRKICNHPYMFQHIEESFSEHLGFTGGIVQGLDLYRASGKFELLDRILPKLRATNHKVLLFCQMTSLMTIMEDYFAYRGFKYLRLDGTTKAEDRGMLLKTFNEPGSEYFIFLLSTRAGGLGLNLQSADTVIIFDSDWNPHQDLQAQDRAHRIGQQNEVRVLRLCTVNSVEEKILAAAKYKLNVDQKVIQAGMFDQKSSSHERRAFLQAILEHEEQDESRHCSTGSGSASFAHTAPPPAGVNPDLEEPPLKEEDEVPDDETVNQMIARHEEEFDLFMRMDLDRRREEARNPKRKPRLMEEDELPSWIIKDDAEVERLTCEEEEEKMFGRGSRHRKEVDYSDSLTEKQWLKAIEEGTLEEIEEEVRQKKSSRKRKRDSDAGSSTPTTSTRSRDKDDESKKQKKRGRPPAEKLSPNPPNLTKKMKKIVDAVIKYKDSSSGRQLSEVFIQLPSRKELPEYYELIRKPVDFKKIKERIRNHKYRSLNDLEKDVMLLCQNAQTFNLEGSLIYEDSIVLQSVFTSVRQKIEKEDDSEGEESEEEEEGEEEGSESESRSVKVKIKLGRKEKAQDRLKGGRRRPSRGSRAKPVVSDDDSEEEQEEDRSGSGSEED

Sequence of BRM (P51531 whole entry): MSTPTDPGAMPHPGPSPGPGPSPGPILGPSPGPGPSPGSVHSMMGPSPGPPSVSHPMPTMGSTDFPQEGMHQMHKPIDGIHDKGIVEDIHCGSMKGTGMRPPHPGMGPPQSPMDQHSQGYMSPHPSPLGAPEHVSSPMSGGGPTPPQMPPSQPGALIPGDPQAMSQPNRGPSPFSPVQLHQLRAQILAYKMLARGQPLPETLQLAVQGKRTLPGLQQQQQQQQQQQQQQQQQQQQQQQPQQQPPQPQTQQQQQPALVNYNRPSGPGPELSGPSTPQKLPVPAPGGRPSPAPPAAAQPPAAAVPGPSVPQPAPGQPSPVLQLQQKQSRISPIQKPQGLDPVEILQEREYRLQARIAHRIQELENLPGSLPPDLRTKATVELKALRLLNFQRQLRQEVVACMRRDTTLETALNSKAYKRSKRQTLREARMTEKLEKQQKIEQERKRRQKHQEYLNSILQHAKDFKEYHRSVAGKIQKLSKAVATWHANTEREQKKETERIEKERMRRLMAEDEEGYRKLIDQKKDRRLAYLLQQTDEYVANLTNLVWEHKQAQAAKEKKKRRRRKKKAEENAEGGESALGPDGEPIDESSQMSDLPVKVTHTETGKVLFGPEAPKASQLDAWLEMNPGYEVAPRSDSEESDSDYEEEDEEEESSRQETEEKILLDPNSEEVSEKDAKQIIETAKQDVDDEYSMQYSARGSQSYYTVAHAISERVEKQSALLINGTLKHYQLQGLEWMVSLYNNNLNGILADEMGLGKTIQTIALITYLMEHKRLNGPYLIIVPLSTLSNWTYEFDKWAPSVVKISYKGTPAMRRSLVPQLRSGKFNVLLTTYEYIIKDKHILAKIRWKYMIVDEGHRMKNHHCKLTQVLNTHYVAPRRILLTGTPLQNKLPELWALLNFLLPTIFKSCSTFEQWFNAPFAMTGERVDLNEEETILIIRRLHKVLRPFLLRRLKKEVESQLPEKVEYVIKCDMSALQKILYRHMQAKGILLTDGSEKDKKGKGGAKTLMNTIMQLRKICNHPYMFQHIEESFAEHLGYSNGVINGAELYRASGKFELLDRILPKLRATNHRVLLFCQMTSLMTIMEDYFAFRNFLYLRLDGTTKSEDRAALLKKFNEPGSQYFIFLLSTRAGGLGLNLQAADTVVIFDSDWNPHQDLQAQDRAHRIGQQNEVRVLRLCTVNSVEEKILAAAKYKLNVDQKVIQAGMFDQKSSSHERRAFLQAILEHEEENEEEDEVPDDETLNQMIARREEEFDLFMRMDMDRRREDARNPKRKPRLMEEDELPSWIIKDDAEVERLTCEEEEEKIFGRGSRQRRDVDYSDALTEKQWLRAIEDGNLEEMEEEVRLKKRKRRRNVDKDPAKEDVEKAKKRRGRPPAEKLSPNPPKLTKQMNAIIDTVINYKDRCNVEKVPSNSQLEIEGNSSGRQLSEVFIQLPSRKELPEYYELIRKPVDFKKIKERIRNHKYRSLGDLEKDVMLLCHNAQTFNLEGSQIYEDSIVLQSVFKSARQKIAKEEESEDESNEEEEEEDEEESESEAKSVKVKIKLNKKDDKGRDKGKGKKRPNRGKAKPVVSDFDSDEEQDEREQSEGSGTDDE

As to `COC(=O)C(C)(C)c1cc(-c2cccc(-c3csc(NC(=O)CNC(=O)c4ccc(N)cc4)n3)c2)ccn1` [Compound 182, methyl 2-(4-(3-(2-(2-(4-aminobenzamido)acetamido)thiazol-4-yl)phenyl)pyridin-2-yl)-2-methylpropanoate], on BRM, the IC50 is less than 100 nM and the “BRM Max % Inhibition” value is greater than 95%. On BRG-1, the half-maximal inhibitory concentration (IC50) lay within 100 to 1000 nM and the “BRG1 Max % Inhibition” value is greater than 90%.

Regarding `CC(=O)N(C)c1cc(-c2cccc(-c3csc(NC(=O)CNC(=O)c4ccc(N)cc4)n3)c2)ccn1` [Compound 183, 4-amino-N-(2-((4-(3-(2-(N-methylacetamido)pyridin-4-yl)phenyl)thiazol-2-yl)amino)-2-oxoethyl)benzamide], at BRM, the IC50 was less than 100 nM and the “BRM Max % Inhibition” value is reported as greater than 95%. Moreover, at BRG-1, the IC50 was less than 100 nM and the “BRG1 Max % Inhibition” value is greater than 95%.

Take `Nc1ccc(C(=O)NCC(=O)Nc2nc(-c3cccc(-c4ccncc4)c3)cs2)nc1` [Compound 184, 5-amino-N-(2-oxo-2-((4-(3-(pyridin-4-yl)phenyl)thiazol-2-yl)amino)ethyl)picolinamide]: on BRM, the 50% inhibitory concentration (IC50) was less than 100 nM and the “BRM Max % Inhibition” value was greater than 80%. For the same molecule, at BRG-1, the IC50 was less than 100 nM and the “BRG1 Max % Inhibition” value is reported as greater than 70%.

Consider `Nc1ccc(C(=O)NCC(=O)Nc2nc(-c3cccc(N4CCS(=O)(=O)CC4)c3)cs2)cc1` [Compound 185, 4-amino-N-(2-((4-(3-(1,1-dioxidothiomorpholino)phenyl)thiazol-2-yl)amino)-2-oxoethyl)benzamide], for which, on BRM, the IC50 lay within 100 to 1000 nM and the “BRM Max % Inhibition” value was greater than 80%. Moreover, at BRG-1, the 50% inhibitory concentration (IC50) lay within 100 to 1000 nM and the “BRG1 Max % Inhibition” value is greater than 70%.

On to `CN(C)CCNC(=O)Cc1cc(-c2cccc(-c3csc(NC(=O)CNC(=O)c4ccc(N)cc4)n3)c2)ccn1` [Compound 186, 4-amino-N-[2-[[4-[3-[2-[2-[2-(dimethylamino)ethylamino]-2-oxo-ethyl]-4-pyridyl]phenyl]thiazol-2-yl]amino]-2-oxo-ethyl]benzamide], for which, at BRM, the 50% inhibitory concentration (IC50) lay in the range of 100 to 1000 nM and the “BRM Max % Inhibition” value was greater than 95%. Besides, on BRG-1, the IC50 lay within 100 to 1000 nM and the “BRG1 Max % Inhibition” value is recorded as greater than 95%.

With `Nc1ccc(C(=O)NCC(=O)Nc2nc(-c3cccc(N4CCC(C(=O)O)CC4)c3)cs2)cc1` [Compound 187, 1-[3-[2-[[2-[(4-aminobenzoyl)amino]acetyl]amino]thiazol-4-yl]phenyl]piperidine-4-carboxylic acid], at BRM, the half-maximal inhibitory concentration (IC50) lay in the range of 100 to 1000 nM and the “BRM Max % Inhibition” value is greater than 70%. For the same molecule, at BRG-1, the IC50 fell in the range of 100 to 1000 nM and the “BRG1 Max % Inhibition” value was greater than 60%.

In the case of `Cc1ccc(-c2csc(NC(=O)CNC(=O)c3ccc(N)cc3)n2)cc1-c1ccncc1` [Compound 188, 4-amino-N-[2-[[4-[4-methyl-3-(4-pyridyl)phenyl]thiazol-2-yl]amino]-2-oxo-ethyl]benzamide], at BRM, the IC50 is less than 100 nM and the “BRM Max % Inhibition” value is given as greater than 95%. At BRG-1, the IC50 was less than 100 nM and the “BRG1 Max % Inhibition” value is reported as greater than 80%.

Consider `CN(C)CCNc1cc(-c2cccc(-c3csc(NC(=O)CNC(=O)c4ccc(N)cc4)n3)c2)ccn1` [Compound 189, 4-amino-N-[2-[[4-[3-[2-[2-(dimethylamino)ethylamino]-4-pyridyl]phenyl]thiazol-2-yl]amino]-2-oxo-ethyl]benzamide], for which, on BRM, the half-maximal inhibitory concentration (IC50) fell in the range of 100 to 1000 nM and the “BRM Max % Inhibition” value is listed as greater than 90%. Moreover, on BRG-1, the half-inhibitory concentration (IC50) lay within 100 to 1000 nM and the “BRG1 Max % Inhibition” value is greater than 90%.

Regarding `CN1CCN(c2cc(-c3cccc(-c4csc(NC(=O)CNC(=O)c5ccc(N)cc5)n4)c3)ccn2)CC1` [Compound 190, 4-amino-N-[2-[[4-[3-[2-(4-methylpiperazin-1-yl)-4-pyridyl]phenyl]thiazol-2-yl]amino]-2-oxo-ethyl]benzamide], at BRM, the IC50 lay in the range of 100 to 1000 nM and the “BRM Max % Inhibition” value is reported as greater than 80%. Also, at BRG-1, the 50% inhibitory concentration (IC50) fell in the range of 100 to 1000 nM and the “BRG1 Max % Inhibition” value is recorded as greater than 80%.

As to `CN(C)CCN(C)c1cc(-c2cccc(-c3csc(NC(=O)CNC(=O)c4ccc(N)cc4)n3)c2)ccn1` [Compound 191, 4-amino-N-[2-[[4-[3-[2-[2-(dimethylamino)ethyl-methyl-amino]-4-pyridyl]phenyl]thiazol-2-yl]amino]-2-oxo-ethyl]benzamide], on BRM, the IC50 was less than 100 nM and the “BRM Max % Inhibition” value was greater than 95%. At BRG-1, the IC50 was 100 to 1000 nM and the “BRG1 Max % Inhibition” value was greater than 95%.

Consider `Nc1ccc(C(=O)NCC(=O)Nc2nc(-c3ccc4[nH]ncc4c3)cs2)cc1` [Compound 192], for which, on BRM, the 50% inhibitory concentration (IC50) was 100 to 1000 nM and the “BRM Max % Inhibition” value was greater than 90%. Moreover, on BRG-1, the 50% inhibitory concentration (IC50) was 100 to 1000 nM and the “BRG1 Max % Inhibition” value was greater than 90%.

As to `Nc1cnc(C(=O)NCC(=O)Nc2nc(-c3cccc(-c4ccncc4)c3)cs2)nc1` [Compound 193, 5-amino-N-[2-oxo-2-[[4-[3-(4-pyridyl)phenyl]thiazol-2-yl]amino]ethyl]pyrimidine-2-carboxamide], on BRM, the concentration for half-maximal inhibition (IC50) lay in the range of 100 to 1000 nM and the “BRM Max % Inhibition” value is listed as greater than 80%. Further, on BRG-1, the IC50 was 100 to 1000 nM and the “BRG1 Max % Inhibition” value was greater than 90%.

For the molecule `Cc1cnccc1-c1cccc(-c2csc(NC(=O)CNC(=O)c3ccc(N)cc3)n2)c1` [Compound 194, 4-amino-N-[2-[[4-[3-(3-methyl-4-pyridyl)phenyl]thiazol-2-yl]amino]-2-oxo-ethyl]benzamide], at BRM, the IC50 fell in the range of 100 to 1000 nM and the “BRM Max % Inhibition” value is greater than 90%. At BRG-1, the IC50 fell in the range of 100 to 1000 nM and the “BRG1 Max % Inhibition” value is greater than 80%.

As for `Cc1cc(-c2cccc(-c3csc(NC(=O)CNC(=O)c4ccc(N)cc4)n3)c2)ccn1` [Compound 195, 4-amino-N-[2-[[4-[3-(2-methyl-4-pyridyl)phenyl]thiazol-2-yl]amino]-2-oxo-ethyl]benzamide], on BRM, the IC50 is less than 100 nM and the “BRM Max % Inhibition” value is reported as greater than 95%. On BRG-1, the half-inhibitory concentration (IC50) is less than 100 nM and the “BRG1 Max % Inhibition” value is greater than 95%.

In the case of `CNCc1cc(-c2cccc(-c3csc(NC(=O)CNC(=O)c4ccc(N)cc4)n3)c2)ccn1` [Compound 196, 4-amino-N-[2-[[4-[3-[2-(methylaminomethyl)-4-pyridyl]phenyl]thiazol-2-yl]amino]-2-oxo-ethyl]benzamide], at BRM, the IC50 is 100 to 1000 nM and the “BRM Max % Inhibition” value was greater than 95%. At BRG-1, the half-inhibitory concentration (IC50) lay in the range of 100 to 1000 nM and the “BRG1 Max % Inhibition” value was greater than 90%.

As for `Nc1ccc(C(=O)NCC(=O)Nc2nc(-c3cccc(COc4ccncc4)c3)cs2)cc1` [Compound 197, 4-amino-N-[2-oxo-2-[[4-[3-(4-pyridyloxymethyl)phenyl]thiazol-2-yl]amino]ethyl]benzamide], on BRM, the IC50 was less than 100 nM and the “BRM Max % Inhibition” value is recorded as greater than 90%. At BRG-1, the half-inhibitory concentration (IC50) was less than 100 nM and the “BRG1 Max % Inhibition” value is listed as greater than 80%.

Regarding `CC(C)(O)c1cccc(-c2csc(NC(=O)CNC(=O)c3ccc(N)cc3)n2)c1` [Compound 198, 4-amino-N-[2-[[4-[3-(1-hydroxy-1-methyl-ethyl)phenyl]thiazol-2-yl]amino]-2-oxo-ethyl]benzamide], on BRM, the half-maximal inhibitory concentration (IC50) was in the range of 100 to 1000 nM and the “BRM Max % Inhibition” value is on record as greater than 80%. Moreover, on BRG-1, the half-inhibitory concentration (IC50) lay within 100 to 1000 nM and the “BRG1 Max % Inhibition” value is greater than 60%.

For `COc1cc(-c2cccc(-c3csc(NC(=O)CNC(=O)c4ccc(N)cn4)n3)c2)ccn1` [Compound 199, 5-amino-N-[2-[[4-[3-(2-methoxy-4-pyridyl)phenyl]thiazol-2-yl]amino]-2-oxo-ethyl]pyridine-2-carboxamide], on BRM, the IC50 was 100 to 1000 nM and the “BRM Max % Inhibition” value is given as greater than 95%. At BRG-1, the IC50 lay in the range of 100 to 1000 nM and the “BRG1 Max % Inhibition” value is reported as greater than 95%.

For `CN(CC(=O)O)c1cc(-c2cccc(-c3csc(NC(=O)CNC(=O)c4ccc(N)cc4)n3)c2)ccn1` [Compound 200, 2-[[4-[3-[2-[[2-[(4-aminobenzoyl)amino]acetyl]amino]thiazol-4-yl]phenyl]-2-pyridyl]-methyl-amino]acetic acid], at BRM, the IC50 was less than 100 nM and the “BRM Max % Inhibition” value is greater than 95%. In addition, on BRG-1, the IC50 was less than 100 nM and the “BRG1 Max % Inhibition” value is greater than 95%.

Turning to `CNC(=O)CN(C)c1cc(-c2cccc(-c3csc(NC(=O)CNC(=O)c4ccc(N)cc4)n3)c2)ccn1` [Compound 202, 4-amino-N-[2-[[4-[3-[2-[methyl-[2-(methylamino)-2-oxo-ethyl]amino]-4-pyridyl]phenyl]thiazol-2-yl]amino]-2-oxo-ethyl]benzamide], at BRM, the IC50 is less than 100 nM and the “BRM Max % Inhibition” value was greater than 95%. Moreover, on BRG-1, the IC50 is less than 100 nM and the “BRG1 Max % Inhibition” value was greater than 95%.

As for `Nc1ccc(C(=O)NCC(=O)Nc2nc(-c3cccc(-c4ccnc(N5CCCCS5(=O)=O)c4)c3)cs2)cc1` [Compound 203, 4-amino-N-[2-[[4-[3-[2-(1,1-dioxothiazinan-2-yl)-4-pyridyl]phenyl]thiazol-2-yl]amino]-2-oxo-ethyl]benzamide], at BRM, the IC50 lay in the range of 100 to 1000 nM and the “BRM Max % Inhibition” value was greater than 80%. On BRG-1, the 50% inhibitory concentration (IC50) is 100 to 1000 nM and the “BRG1 Max % Inhibition” value is greater than 80%.

As for `CN1CCN(c2cccc(-c3csc(NC(=O)CNC(=O)c4ccc(N)cc4)n3)c2)CC1=O` [Compound 204, 4-amino-N-[2-[[4-[3-(4-methyl-3-oxo-piperazin-1-yl)phenyl]thiazol-2-yl]amino]-2-oxo-ethyl]benzamide], at BRM, the IC50 lay in the range of 100 to 1000 nM and the “BRM Max % Inhibition” value was greater than 80%. Further, on BRG-1, the concentration for half-maximal inhibition (IC50) was in the range of 100 to 1000 nM and the “BRG1 Max % Inhibition” value is on record as greater than 70%.

For `CNC(=O)Cc1cc(-c2cccc(-c3csc(NC(=O)CNC(=O)c4ccc(N)cc4)n3)c2)ccn1` [Compound 205, 4-amino-N-[2-[[4-[3-[2-[2-(methylamino)-2-oxo-ethyl]-4-pyridyl]phenyl]thiazol-2-yl]amino]-2-oxo-ethyl]benzamide], on BRM, the IC50 is less than 100 nM and the “BRM Max % Inhibition” value was greater than 95%. Besides, on BRG-1, the IC50 is less than 100 nM and the “BRG1 Max % Inhibition” value was greater than 95%.
